Measurements: patent US9110063B2, “Assay methods for the determination of FKBPL expression level in the context of breast cancer” (The Queen's University of Belfast, priority 2009, dated 2015)

What was measured:
MCF7 parental cells = experiment: Western blot of FKBPL and ER protein after 17-β-estradiol; type: cell-based; settings: 10^−8M, 24 h, versus DMSO vehicle
Procedure: To determine whether FKBPL itself could be regulated by oestrogen, 2×10^5 MCF7 parental cells were seeded into 35 mm dishes with phenol red-free DMEM+10% charcoal stripped FCS and incubated at 37° C. for 24 h. The medium was replaced with phenol red-free DMEM+10% charcoal-stripped FCS containing DMSO as vehicle control or 10^−8M 17-β-estradiol (Sigma, Cat no. E2758) and incubated for 24 h. Cells were lysed in 250 μl 2× laemmli buffer (Sigma) and subjected to SDS-PAGE electrophoresis using the XCell Surelock Mini-cell system (Invitrogen), transferred onto nitrocellulose membranes, blocked for 1 h at room temperature with 1% skim milk blocking solution and probed with FKBPL rabbit polyclonal (ProteinTech, Cat no. 10060-1-AP) at a dilution of 1:2000, ER rabbit monoclonal (Millipore, Cat no. 07-662) at a dilution of 1:1000 and GAPDH rabbit monoclonal (Sigma, Cat no. G9545) at a dilution of 1:5000. The blot was then probed with corresponding anti-rabbit IgG HRP-linked whole antibody secondary (GE Healthcare, Cat no. NA934V) or anti-mouse IgG HRP-linked whole antibody secondary (GE Healthcare, Cat no. NA931V) at a dilution of 1:10000. Antibody binding was detected using Supersignal West Pico Chemiluminescent Substrate (Pierce, Cat no. 34080).

MCF7 cells [1] = experiment: Clonogenic assay, FKBPL-overexpressing MCF7 clones versus parental controls; type: cell-based; settings: 16 days, colony count
Procedure: Cells were plated at a density of 500 and 1000 cells/well in a 6-well plate containing DMEM+10% FCS and incubated at 37° C. for 24 h. […] In both experiments, colonies were fixed and stained with 0.4% Crystal Violet/70% methanol then counted.

MCF7 cells [2] = experiment: Clonogenic assay after FKBPL siRNA knockdown versus non-targeting control; type: cell-based; settings: 16 days, versus non-targeting siRNA controls
Procedure: MCF7 cells were transfected with siControl non-targeting siRNA #1 (Dharmacon, Cat no. D-001210-01-20) or FKBPL targeted siRNA (Ambion, Cat no. 16104). Briefly, 1×10^5 MCF7 cells were seeded into 35 mm dishes and incubated at 37° C. for 24 h. To transfect, in one tube 6.4 μl of either siControl non-targeting siRNA or FKBPL targeted siRNA (2 μM) was added to 160 μl OptiMEM (Invitrogen) and in another tube 4 μl Oligofectamine (Invitrogen, Cat no. 12252-011) was added to 30 μl OptiMEM. Both tubes were incubated at room temperature for 5 min. Both tube contents were mixed and incubated at room temperature for 20 min. During incubation, 800 μl prewarmed complete DMEM was added to the cells then 200 μl transfection mix was added dropwise and the dishes incubated at 37° C. for 72 h. Cells were then plated at a density of 1000 and 2000 cells/well in a 6-well plate containing DMEM+10% FCS and incubated at 37° C. for 24 h. […] In both experiments, colonies were fixed and stained with 0.4% Crystal Violet/70% methanol then counted.

[3] = test system: oestrogen receptor positive (ER+) patients; settings: cited from earlier work

SMILES: C[C@]12CC[C@@H]3c4ccc(O)cc4CC[C@H]3[C@@H]1CC[C@@H]2O [17-β-estradiol]
- ER levels (MCF7 parental cells): decrease
- FKBPL protein expression (MCF7 parental cells): upregulated

SMILES: C[C@]12CC[C@@H]3c4ccc(O)cc4C[C@@H](CCCCCCCCC[S+]([O-])CCCC(F)(F)C(F)(F)F)[C@H]3[C@@H]1CC[C@@H]2O (some centres unmarked) [fulvestrant, Fulvestrant]
- FKBPL-overexpressing clones more sensitive than parental controls (MCF7 cells [1]; 2.5 nM fulvestrant): up to 99%
- Resistance of MCF-7 cells after FKBPL knock-down (MCF7 cells [2]; 2.5 nM fulvestrant): dramatically increased the resistance

SMILES: CC/C(=C(\c1ccccc1)c1ccc(OCCN(C)C)cc1)c1ccccc1 [tamoxifen, Tamoxifen]
- FKBPL-overexpressing cells more sensitive than parental controls (MCF7 cells [1]; 1 μM tamoxifen): up to 90%
- Resistance of MCF-7 cells after FKBPL knock-down (MCF7 cells [2]; 1 μM tamoxifen): dramatically increased the resistance
- ER+ patients showing a response ([3]; ER+ breast cancer patients): around 60%
- ER+ tumours failing to respond to or developing resistance ([3]; ER+ tumours (non-responder subjects)): up to 40%
